# According to PubChem BioAssay (NCI):
#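 Growth conditions: 96-well plates. Treatment: test compound, 48 hours, 5 concentrations. Analysis: linear interpolation between bracketing concentrations; unreached endpoints set to highest concentration. TGI denotes the concentration required for complete inhibition of growth.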
# How the values were obtained:
# Assay in all cases: NCI tumour cell line growth inhibition, 48 h
# 786-0 renal = tested on: 786-0 renal
# A498 renal = tested on: A498 renal
# A549 NSCLC = tested on: A549 NSCLC
# BT-549 breast = tested on: BT-549 breast
# CAKI-1 renal = tested on: CAKI-1 renal
# CCRF-CEM leukemia = tested on: CCRF-CEM leukemia
# COLO 205 colon = tested on: COLO 205 colon
# DU-145 prostate = tested on: DU-145 prostate
# EKVX NSCLC = tested on: EKVX NSCLC
# HCC-2998 colon = tested on: HCC-2998 colon
# HCT-116 colon = tested on: HCT-116 colon
# HCT-15 colon = tested on: HCT-15 colon
# HL-60(TB) leukemia = tested on: HL-60(TB) leukemia
# HOP-62 NSCLC = tested on: HOP-62 NSCLC
# HOP-92 NSCLC = tested on: HOP-92 NSCLC
# HS 578T breast = tested on: HS 578T breast
# HT29 colon = tested on: HT29 colon
# IGROV1 ovarian = tested on: IGROV1 ovarian
# K-562 leukemia = tested on: K-562 leukemia
# KM12 colon = tested on: KM12 colon
# LOX IMVI melanoma = tested on: LOX IMVI melanoma
# M14 melanoma = tested on: M14 melanoma
# MALME-3M melanoma = tested on: MALME-3M melanoma
# MCF7 breast = tested on: MCF7 breast
# MDA-MB-231 breast = tested on: MDA-MB-231 breast
# MDA-MB-435 = tested on: MDA-MB-435
# MDA-N = tested on: MDA-N
# MOLT-4 leukemia = tested on: MOLT-4 leukemia
# NCI-H226 lung = tested on: NCI-H226 lung
# NCI-H23 lung = tested on: NCI-H23 lung
# NCI-H522 lung = tested on: NCI-H522 lung
# NCI/ADR-RES ovarian = tested on: NCI/ADR-RES ovarian
# OVCAR-3 ovarian = tested on: OVCAR-3 ovarian
# OVCAR-4 ovarian = tested on: OVCAR-4 ovarian
# OVCAR-5 ovarian = tested on: OVCAR-5 ovarian
# OVCAR-8 ovarian = tested on: OVCAR-8 ovarian
# PC-3 prostate = tested on: PC-3 prostate
# RPMI-8226 leukemia = tested on: RPMI-8226 leukemia
# SF-268 CNS = tested on: SF-268 CNS
# SF-295 CNS = tested on: SF-295 CNS
# SF-539 CNS = tested on: SF-539 CNS
# SK-MEL-2 melanoma = tested on: SK-MEL-2 melanoma
# SK-MEL-28 melanoma = tested on: SK-MEL-28 melanoma
# SK-MEL-5 melanoma = tested on: SK-MEL-5 melanoma
# SK-OV-3 ovarian = tested on: SK-OV-3 ovarian
# SN12C renal = tested on: SN12C renal
# SNB-19 CNS = tested on: SNB-19 CNS
# SNB-75 CNS = tested on: SNB-75 CNS
# SR leukemia = tested on: SR leukemia
# SW-620 colon = tested on: SW-620 colon
# T-47D breast = tested on: T-47D breast
# TK-10 renal = tested on: TK-10 renal
# U251 CNS = tested on: U251 CNS
# UACC-257 melanoma = tested on: UACC-257 melanoma
# UACC-62 melanoma = tested on: UACC-62 melanoma
# UO-31 renal = tested on: UO-31 renal
# ACHN renal = tested on: ACHN renal
# NCI-H460 lung = tested on: NCI-H460 lung
# RXF 393 renal = tested on: RXF 393 renal
smiles,measurement,setting,value
CC(C)n1c2c(c3ccccc3c1=O)C(=O)c1ccccc1-2,TGI,786-0 renal,> 100 µM
same,TGI,A498 renal,> 100 µM
same,TGI,A549 NSCLC,> 100 µM
same,TGI,BT-549 breast,> 100 µM
same,TGI,CAKI-1 renal,> 100 µM
same,TGI,CCRF-CEM leukemia,> 100 µM
same,TGI,COLO 205 colon,> 100 µM
same,TGI,DU-145 prostate,> 100 µM
same,TGI,EKVX NSCLC,> 100 µM
same,TGI,HCC-2998 colon,> 100 µM
same,TGI,HCT-116 colon,> 100 µM
same,TGI,HCT-15 colon,> 100 µM
same,TGI,HL-60(TB) leukemia,> 100 µM
same,TGI,HOP-62 NSCLC,> 100 µM
same,TGI,HOP-92 NSCLC,> 100 µM
same,TGI,HS 578T breast,> 100 µM
same,TGI,HT29 colon,> 100 µM
same,TGI,IGROV1 ovarian,> 100 µM
same,TGI,K-562 leukemia,> 100 µM
same,TGI,KM12 colon,> 100 µM
same,TGI,LOX IMVI melanoma,> 100 µM
same,TGI,M14 melanoma,> 100 µM
same,TGI,MALME-3M melanoma,> 100 µM
same,TGI,MCF7 breast,> 100 µM
same,TGI,MDA-MB-231 breast,> 100 µM
same,TGI,MDA-MB-435,> 100 µM
same,TGI,MDA-N,> 100 µM
same,TGI,MOLT-4 leukemia,> 100 µM
same,TGI,NCI-H226 lung,> 100 µM
same,TGI,NCI-H23 lung,> 100 µM
same,TGI,NCI-H522 lung,> 100 µM
same,TGI,NCI/ADR-RES ovarian,> 100 µM
same,TGI,OVCAR-3 ovarian,> 100 µM
same,TGI,OVCAR-4 ovarian,> 100 µM
same,TGI,OVCAR-5 ovarian,> 100 µM
same,TGI,OVCAR-8 ovarian,> 100 µM
same,TGI,PC-3 prostate,> 100 µM
same,TGI,RPMI-8226 leukemia,> 100 µM
same,TGI,SF-268 CNS,> 100 µM
same,TGI,SF-295 CNS,> 100 µM
same,TGI,SF-539 CNS,> 100 µM
same,TGI,SK-MEL-2 melanoma,> 100 µM
same,TGI,SK-MEL-28 melanoma,> 100 µM
same,TGI,SK-MEL-5 melanoma,> 100 µM
same,TGI,SK-OV-3 ovarian,> 100 µM
same,TGI,SN12C renal,> 100 µM
same,TGI,SNB-19 CNS,> 100 µM
same,TGI,SNB-75 CNS,> 100 µM
same,TGI,SR leukemia,> 100 µM
same,TGI,SW-620 colon,> 100 µM
same,TGI,T-47D breast,> 100 µM
same,TGI,TK-10 renal,> 100 µM
same,TGI,U251 CNS,> 100 µM
same,TGI,UACC-257 melanoma,> 100 µM
same,TGI,UACC-62 melanoma,> 100 µM
same,TGI,UO-31 renal,> 100 µM
Brc1ccc2c(c1)[C@H]1CCc3c([nH]c4ccccc34)[C@H]1N2,TGI,A549 NSCLC,47.4 µM
same,TGI,ACHN renal,25 µM
same,TGI,BT-549 breast,34.7 µM
same,TGI,CAKI-1 renal,21.8 µM
same,TGI,CCRF-CEM leukemia,21.6 µM
same,TGI,COLO 205 colon,23.6 µM
same,TGI,DU-145 prostate,25.5 µM
same,TGI,EKVX NSCLC,22.6 µM
same,TGI,HCC-2998 colon,25.5 µM
same,TGI,HCT-116 colon,21 µM
same,TGI,HOP-62 NSCLC,25.6 µM
same,TGI,HOP-92 NSCLC,26.3 µM
same,TGI,HS 578T breast,46.5 µM
same,TGI,HT29 colon,27.1 µM
same,TGI,IGROV1 ovarian,15.6 µM
same,TGI,K-562 leukemia,39.8 µM
same,TGI,KM12 colon,18.6 µM
same,TGI,LOX IMVI melanoma,19.1 µM
same,TGI,M14 melanoma,29.9 µM
same,TGI,MALME-3M melanoma,22.8 µM
same,TGI,MCF7 breast,18.6 µM
same,TGI,MDA-MB-231 breast,12.3 µM
same,TGI,MDA-MB-435,26.2 µM
same,TGI,MDA-N,28.7 µM
same,TGI,MOLT-4 leukemia,16.8 µM
same,TGI,NCI-H226 lung,28.4 µM
same,TGI,NCI-H23 lung,25 µM
same,TGI,NCI-H460 lung,24.8 µM
same,TGI,NCI/ADR-RES ovarian,29.6 µM
same,TGI,OVCAR-3 ovarian,25.3 µM
same,TGI,OVCAR-4 ovarian,26.3 µM
same,TGI,OVCAR-5 ovarian,27 µM
same,TGI,OVCAR-8 ovarian,27.4 µM
same,TGI,PC-3 prostate,22.4 µM
same,TGI,RPMI-8226 leukemia,23.2 µM
same,TGI,RXF 393 renal,33.4 µM
same,TGI,SF-268 CNS,32.4 µM
same,TGI,SF-295 CNS,24.5 µM
same,TGI,SF-539 CNS,16.4 µM
same,TGI,SK-MEL-2 melanoma,36.4 µM
same,TGI,SK-MEL-28 melanoma,27 µM
same,TGI,SK-MEL-5 melanoma,12.1 µM
same,TGI,SK-OV-3 ovarian,27.5 µM
same,TGI,SN12C renal,27.2 µM
same,TGI,SNB-19 CNS,27 µM
same,TGI,SNB-75 CNS,35.7 µM
same,TGI,SR leukemia,33.1 µM
same,TGI,SW-620 colon,27.4 µM
same,TGI,T-47D breast,16.8 µM
same,TGI,TK-10 renal,23.3 µM
same,TGI,U251 CNS,21.7 µM
same,TGI,UACC-257 melanoma,25.6 µM
same,TGI,UACC-62 melanoma,24 µM
same,TGI,UO-31 renal,26.9 µM
